Test systems include KM12; MOLT-4; SF-295; OVCAR-4; SK-MEL-2; CAKI-1; 786-0; SN12C; NCI-H522; KM-20L2; A498; RXF 393; K562; IGROV-1; TK-10; OVCAR-3.
Common to all, as to experiment: NCI tumour cell line growth inhibition, 48 h

Molecules are shown by their SMILES.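 These data come from cells grown in 96-well plates and exposed to compound for 48 hours at five concentrations. GI50 is the concentration that inhibits growth by half.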 Activity calls are given as the source filed them. Rule as the data show it: active = GI50 up to about 1.1 µM and inactive = higher. Some results are limits rather than exact numbers.

As to `CN1C(=O)C(=O)N2c3ccc(Cl)cc3C3(c4ccccc4)N=CC12O3` (stereo unspecified), the GI50 was 3.55 µM (inactive) in the test with KM12; 3.07 µM (inactive) with MOLT-4; 11.1 µM (inactive) with SF-295; 2.11 µM (inactive) in the test on OVCAR-4; 6.01 µM (inactive) in the test on SK-MEL-2; 5.13 µM (inactive) in the test on CAKI-1. In addition, the GI50 was 6.95 µM (inactive) in the test on 786-0; 3.53 µM (inactive) in the test with SN12C; 2.4 µM (inactive) with NCI-H522; 8.83 µM (inactive) in the test on KM-20L2; 10.8 µM (inactive) in the test with A498; 1.9 µM (inactive) with RXF 393. For the same compound, the GI50 with K562 is 3.45 µM (inactive); with IGROV-1, 7.28 µM (inactive); in the test with TK-10, 5.45 µM (inactive); with OVCAR-3 it was 4.38 µM (inactive).

As for `CC(Oc1ccc2cc(C(=O)c3ccccc3)c(=O)oc2c1)C(=O)O` (stereo unspecified), the GI50 in the test on KM12, in the test on MOLT-4, in the test on SF-295, with OVCAR-4, in the test on CAKI-1 and in the test on 786-0 was > 100 µM (inactive) throughout. Also, the GI50 in the test on SN12C, in the test on NCI-H522, with KM-20L2, in the test with A498, in the test on RXF 393 and in the test on K562 was > 100 µM (inactive) throughout. The GI50 in the test on IGROV-1, in the test on TK-10 and in the test on OVCAR-3 was > 100 µM (inactive) throughout.

For `Cc1nnc(N/N=C(/C(=O)C(C#N)c2ccccc2)C(C#N)c2ccccc2)n1N` (stereo unspecified), the GI50 with KM12 is 28.4 µM (inactive); with MOLT-4, 0.845 µM (active); with SF-295, 3.75 µM (inactive); in the test on OVCAR-4, 24.4 µM (inactive); in the test with SK-MEL-2, 5.25 µM (inactive); with CAKI-1 it was 32.1 µM (inactive). In addition, the GI50 is 11.8 µM (inactive) in the test with 786-0; 3.13 µM (inactive) with SN12C; 17.9 µM (inactive) with NCI-H522; 49.3 µM (inactive) in the test with KM-20L2; 7.98 µM (inactive) with A498; 17 µM (inactive) in the test with RXF 393. Moreover, the GI50 is 3.73 µM (inactive) with K562, > 58.9 µM (inactive) in the test with IGROV-1, > 60.3 µM (inactive) with TK-10 and 20 µM (inactive) in the test with OVCAR-3.

Turning to `O=c1c(O)c(-c2ccccc2)n(O)c2ccc(Cl)cc12`, the GI50 in the test with KM12 is 31.6 µM (inactive); in the test on MOLT-4, 32.7 µM (inactive); in the test with SF-295, 29.4 µM (inactive); in the test on OVCAR-4 it was 36.3 µM (inactive); with SK-MEL-2 it was 21.5 µM (inactive); with CAKI-1 it was 29.9 µM (inactive). Also, the GI50 in the test with 786-0 is 28.7 µM (inactive); in the test with SN12C it was 20.8 µM (inactive); with NCI-H522, 21.4 µM (inactive); in the test with KM-20L2 it was 28.1 µM (inactive); in the test on A498, 29.2 µM (inactive); with RXF 393 it was 23.1 µM (inactive). The GI50 is 26.5 µM (inactive) with K562, 29.6 µM (inactive) in the test on IGROV-1, 31.3 µM (inactive) in the test with TK-10 and 32.3 µM (inactive) with OVCAR-3.

As to `CC1=C(C(=O)Nc2ccc([N+](=O)[O-])cc2)C(c2ccc3c(c2)OCO3)C(C(=O)Nc2ccc([N+](=O)[O-])cc2)=C(C)N1`, the GI50 in the test on KM12 was 3.8 µM (inactive); in the test with MOLT-4 it was 0.321 µM (active); in the test on SF-295, 8.34 µM (inactive); in the test with OVCAR-4, 10.6 µM (inactive); in the test on SK-MEL-2, 6.68 µM (inactive); in the test on CAKI-1 it was 23.7 µM (inactive). In addition, the GI50 in the test with 786-0 is 14.1 µM (inactive); in the test on SN12C, 38.3 µM (inactive); in the test on NCI-H522, 24.1 µM (inactive); in the test with KM-20L2 it was 28 µM (inactive); in the test with A498 it was 14.2 µM (inactive); in the test on RXF 393 it was 25.3 µM (inactive). For the same compound, the GI50 with K562 is 4.15 µM (inactive); in the test on IGROV-1, 8.41 µM (inactive); in the test with OVCAR-3 it was 6.43 µM (inactive).

In the case of `C[C@@H]1C(=O)CC2C(C)(C)CCC[C@]2(C)[C@@]12CC[C@]1(C=COC1)O2` (stereo partly specified), the GI50 was 39.4 µM (inactive) in the test with KM12; 16 µM (inactive) in the test on MOLT-4; 36.6 µM (inactive) with SF-295; 43.8 µM (inactive) in the test on OVCAR-4; 22.7 µM (inactive) with SK-MEL-2; 64.3 µM (inactive) in the test with CAKI-1. Also, the GI50 in the test with 786-0 was 33.3 µM (inactive); in the test with SN12C it was 18.7 µM (inactive); with NCI-H522, 19.2 µM (inactive); in the test on KM-20L2 it was 46.7 µM (inactive); with RXF 393 it was 16 µM (inactive); with K562, 24.3 µM (inactive). Also, the GI50 in the test on IGROV-1 is 36.9 µM (inactive); in the test with OVCAR-3, 36.4 µM (inactive).

Take `CC(C(=O)n1nnc2ccccc21)N(c1ccccc1)c1ccccc1` (stereo unspecified): the GI50 was 99.5 µM (inactive) in the test on MOLT-4; > 100 µM (inactive) with SF-295; > 100 µM (inactive) in the test on SK-MEL-2; > 100 µM (inactive) with CAKI-1; > 100 µM (inactive) with 786-0; > 100 µM (inactive) in the test with SN12C. Also, the GI50 was 45.5 µM (inactive) in the test on NCI-H522; > 100 µM (inactive) in the test on KM-20L2; > 100 µM (inactive) in the test on RXF 393; > 100 µM (inactive) with K562; > 100 µM (inactive) in the test on IGROV-1; > 100 µM (inactive) in the test with TK-10. Also, the GI50 with OVCAR-3 is 66.7 µM (inactive).

Regarding `CC1CC(C)C(C(O)CC2CC(=O)N(c3ccccc3)C(=O)C2)C(O)C1` (stereo unspecified), the GI50 in the test with KM12, with MOLT-4, in the test on SF-295, in the test with OVCAR-4, in the test on CAKI-1 and in the test with 786-0 was > 100 µM (inactive) throughout. The GI50 in the test on SN12C, in the test with NCI-H522, with KM-20L2, in the test with A498, with RXF 393 and with K562 was > 100 µM (inactive) in each case. For the same compound, the GI50 in the test on IGROV-1, with TK-10 and in the test on OVCAR-3 was > 100 µM (inactive) in each case.

As for `Cc1cc(=O)oc2cc(OCCCOc3ccc4c(C)cc(=O)oc4c3)ccc12`, the GI50 is > 100 µM (inactive) in the test with MOLT-4; > 100 µM (inactive) in the test with SF-295; > 100 µM (inactive) with OVCAR-4; > 100 µM (inactive) in the test with SK-MEL-2; 59.8 µM (inactive) in the test with 786-0; > 100 µM (inactive) in the test with SN12C. The GI50 in the test on KM-20L2, in the test on A498, with RXF 393, in the test on K562, with IGROV-1 and in the test with TK-10 was > 100 µM (inactive) throughout. In the test with OVCAR-3, the GI50 was > 100 µM (inactive).

Regarding `CN(C)CCNC(=O)Cc1ccccc1Nc1c(Cl)cccc1Cl`, the GI50 is 18.5 µM (inactive) in the test on KM12; 16 µM (inactive) in the test with MOLT-4; 16 µM (inactive) with SF-295; 20.1 µM (inactive) in the test on OVCAR-4; 12.2 µM (inactive) in the test with 786-0; 15.1 µM (inactive) with SN12C. Moreover, the GI50 was 4.31 µM (inactive) in the test with KM-20L2; 15.3 µM (inactive) in the test with RXF 393; 15.3 µM (inactive) with K562; 19.1 µM (inactive) in the test on IGROV-1; 13.7 µM (inactive) in the test on TK-10; 17.2 µM (inactive) in the test with OVCAR-3.

For the compound `c1ccc(Nc2nnc(CSc3nc(-c4ccccc4)c(-c4ccccc4)[nH]3)s2)cc1`, the GI50 in the test on KM12 is 21.1 µM (inactive); in the test with MOLT-4, 10.1 µM (inactive); in the test with SF-295, 18.6 µM (inactive); in the test on OVCAR-4 it was 27 µM (inactive); with SK-MEL-2, 19 µM (inactive); in the test with 786-0 it was 18.2 µM (inactive). Besides, the GI50 in the test on SN12C was 17.1 µM (inactive); in the test with NCI-H522, 17.2 µM (inactive); in the test on KM-20L2 it was 26.7 µM (inactive); in the test on A498, 26.5 µM (inactive); in the test with IGROV-1, 21.3 µM (inactive); in the test on TK-10, 26.1 µM (inactive). In the test on OVCAR-3, the GI50 is 10.5 µM (inactive).

In the case of `CN(C)/C(F)=P\C(F)(F)F` (stereo unspecified), the GI50 with KM12, in the test on MOLT-4, with SF-295, in the test on OVCAR-4, in the test with SK-MEL-2 and with CAKI-1 was > 100 µM (inactive) in each case. The GI50 in the test with 786-0, in the test with SN12C, in the test on NCI-H522, with KM-20L2, with A498 and in the test with RXF 393 was > 100 µM (inactive) each time. For the same compound, the GI50 with K562, with IGROV-1 and in the test on TK-10 was > 100 µM (inactive) in each case.

Take `O=C(O)CN(c1ccccc1)S(=O)(=O)c1ccc(NC(=O)c2ccccc2)cc1`: the GI50 in the test with MOLT-4, in the test on OVCAR-4, in the test with SK-MEL-2, with CAKI-1, in the test with 786-0 and in the test on SN12C was > 100 µM (inactive) throughout. For the same compound, the GI50 with NCI-H522, with KM-20L2, in the test with A498, in the test on RXF 393, with K562 and in the test with IGROV-1 was > 100 µM (inactive) in each case. The GI50 in the test on TK-10 is > 100 µM (inactive).

Take `COC(=O)C1CC/C(=N/c2ccc(C)cc2C)N1` (stereo unspecified): the GI50 in the test on KM12, with MOLT-4, in the test with SF-295, in the test on OVCAR-4, in the test with SK-MEL-2 and in the test with CAKI-1 was > 100 µM (inactive) throughout. The GI50 in the test on 786-0, in the test with SN12C, with NCI-H522, in the test with KM-20L2, in the test on A498 and in the test on K562 was > 100 µM (inactive) each time. Further, the GI50 in the test on IGROV-1, with TK-10 and in the test on OVCAR-3 was > 100 µM (inactive) throughout.

The record behind these values is ChEMBL document CHEMBL1201862, “PubChem BioAssay data set” (2004).
